Laboratory results as given in the supplement of paper PMC10307832.

How the values were obtained:
Experiment in all cases: relative viability (nuclei count vs DMSO), 5 days (fraction); higher = more cells survive
PC-14 = system: PC-14
Method in brief: (§1)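 Lung cancer cell lines in 1536-well plates were dosed by pin tool the day after seeding, either with one drug alone or with a fixed anchor-drug dose plus five library-drug doses (not always all listed) in √10 steps. After 5 days, cells were fixed and their nuclei stained in one step (final 0.05% Triton X-100, 1% formaldehyde, 1 ug/ml Hoechst), then counted on 4× images. Relative viability is the nuclei count in treated wells divided by that in vehicle wells. Values are medians of duplicate plates.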

HCC-366 = system: HCC-366
Method in brief: as §1

NCI-H2228 = system: NCI-H2228
Method in brief: as §1

UMC-11 = system: UMC-11
Method in brief: as §1

H3255 = system: H3255
Method in brief: as §1

ABC-1 = system: ABC-1
Method in brief: as §1

NCI-H2085 = system: NCI-H2085
Method in brief: as §1

LCLC-103H = system: LCLC-103H
Method in brief: as §1

COR-L23 = system: COR-L23
Method in brief: as §1

NCI-H23 = system: NCI-H23
Method in brief: as §1

NCI-H661 = system: NCI-H661
Method in brief: as §1

NCI-H1666 = system: NCI-H1666
Method in brief: as §1

NCI-H1975 = system: NCI-H1975
Method in brief: as §1

LXF-289 = system: LXF-289
Method in brief: as §1

NCI-H2009 = system: NCI-H2009
Method in brief: as §1

SK-MES-1 = system: SK-MES-1
Method in brief: as §1

HCC-15 = system: HCC-15
Method in brief: as §1

NCI-H1437 = system: NCI-H1437
Method in brief: as §1

HCC-827 = system: HCC-827
Method in brief: as §1

NCI-H2342 = system: NCI-H2342
Method in brief: as §1

PC-3 [JPC-3] = system: PC-3 [JPC-3]
Method in brief: as §1

LC-2-ad = system: LC-2-ad
Method in brief: as §1

NCI-H2087 = system: NCI-H2087
Method in brief: as §1

## Cc1cn(-c2cc(NC(=O)c3ccc(C)c(Nc4nccc(-c5cccnc5)n4)c3)cc(C(F)(F)F)c2)cn1 [Nilotinib] + Cc1cc(Nc2cc(N3CCN(C)CC3)nc(Sc3ccc(NC(=O)C4CC4)cc3)n2)n[nH]1 [Tozasertib] (partner 0.1 µM)
PC-14; first compound 0.001 µM
  relative viability: 0.682
PC-14; first compound 0.003162 µM
  relative viability: 0.485
PC-14; first compound 0.01 µM
  relative viability: 0.53
PC-14; first compound 0.03162 µM
  relative viability: 0.519
PC-14; first compound 0.1 µM
  relative viability: 0.615
HCC-366; first compound 0.001 µM
  relative viability: 0.0811
HCC-366; first compound 0.003162 µM
  relative viability: 0.057
HCC-366; first compound 0.01 µM
  relative viability: 0.0646
HCC-366; first compound 0.03162 µM
  relative viability: 0.072
HCC-366; first compound 0.1 µM
  relative viability: 0.05
NCI-H2228; first compound 0.003162 µM
  relative viability: 0.223
NCI-H2228; first compound 0.01 µM
  relative viability: 0.212
NCI-H2228; first compound 0.03162 µM
  relative viability: 0.16
NCI-H2228; first compound 0.1 µM
  relative viability: 0.141
UMC-11; first compound 0.001 µM
  relative viability: 0.191
UMC-11; first compound 0.003162 µM
  relative viability: 0.19
UMC-11; first compound 0.01 µM
  relative viability: 0.179
UMC-11; first compound 0.03162 µM
  relative viability: 0.166
UMC-11; first compound 0.1 µM
  relative viability: 0.134
H3255; first compound 0.001 µM
  relative viability: 0.532
H3255; first compound 0.003162 µM
  relative viability: 0.516
H3255; first compound 0.03162 µM
  relative viability: 0.48
H3255; first compound 0.1 µM
  relative viability: 0.717
ABC-1; first compound 0.001 µM
  relative viability: 0.175
ABC-1; first compound 0.003162 µM
  relative viability: 0.176
ABC-1; first compound 0.01 µM
  relative viability: 0.168
ABC-1; first compound 0.03162 µM
  relative viability: 0.232
ABC-1; first compound 0.1 µM
  relative viability: 0.237
NCI-H2085; first compound 0.001 µM
  relative viability: 0.616
NCI-H2085; first compound 0.003162 µM
  relative viability: 0.593
NCI-H2085; first compound 0.01 µM
  relative viability: 0.585
NCI-H2085; first compound 0.03162 µM
  relative viability: 0.47
NCI-H2085; first compound 0.1 µM
  relative viability: 0.427
LCLC-103H; first compound 0.001 µM
  relative viability: 0.347
LCLC-103H; first compound 0.003162 µM
  relative viability: 0.425
LCLC-103H; first compound 0.01 µM
  relative viability: 0.452
LCLC-103H; first compound 0.03162 µM
  relative viability: 0.364
LCLC-103H; first compound 0.1 µM
  relative viability: 0.293
COR-L23; first compound 0.001 µM
  relative viability: 0.143
COR-L23; first compound 0.003162 µM
  relative viability: 0.132
COR-L23; first compound 0.01 µM
  relative viability: 0.134
COR-L23; first compound 0.03162 µM
  relative viability: 0.158
COR-L23; first compound 0.1 µM
  relative viability: 0.126
NCI-H23; first compound 0.001 µM
  relative viability: 0.303
NCI-H23; first compound 0.003162 µM
  relative viability: 0.329
NCI-H23; first compound 0.01 µM
  relative viability: 0.283
NCI-H23; first compound 0.03162 µM
  relative viability: 0.247
NCI-H23; first compound 0.1 µM
  relative viability: 0.226
NCI-H661; first compound 0.001 µM
  relative viability: 0.346
NCI-H661; first compound 0.003162 µM
  relative viability: 0.357
NCI-H661; first compound 0.01 µM
  relative viability: 0.364
NCI-H661; first compound 0.03162 µM
  relative viability: 0.382
NCI-H661; first compound 0.1 µM
  relative viability: 0.355
NCI-H1666; first compound 0.001 µM
  relative viability: 0.493
NCI-H1666; first compound 0.003162 µM
  relative viability: 0.566
NCI-H1666; first compound 0.01 µM
  relative viability: 0.531
NCI-H1666; first compound 0.03162 µM
  relative viability: 0.518
NCI-H1666; first compound 0.1 µM
  relative viability: 0.556
NCI-H1975; first compound 0.001 µM
  relative viability: 0.212
NCI-H1975; first compound 0.003162 µM
  relative viability: 0.224
NCI-H1975; first compound 0.01 µM
  relative viability: 0.205
NCI-H1975; first compound 0.03162 µM
  relative viability: 0.154
NCI-H1975; first compound 0.1 µM
  relative viability: 0.218
LXF-289; first compound 0.001 µM
  relative viability: 0.254
LXF-289; first compound 0.003162 µM
  relative viability: 0.189
LXF-289; first compound 0.01 µM
  relative viability: 0.222
LXF-289; first compound 0.03162 µM
  relative viability: 0.127
LXF-289; first compound 0.1 µM
  relative viability: 0.153
NCI-H2009; first compound 0.001 µM
  relative viability: 0.622
NCI-H2009; first compound 0.003162 µM
  relative viability: 0.853
NCI-H2009; first compound 0.01 µM
  relative viability: 0.577
NCI-H2009; first compound 0.03162 µM
  relative viability: 0.372
NCI-H2009; first compound 0.1 µM
  relative viability: 0.383
SK-MES-1; first compound 0.001 µM
  relative viability: 0.804
SK-MES-1; first compound 0.003162 µM
  relative viability: 0.939
SK-MES-1; first compound 0.01 µM
  relative viability: 1.05
SK-MES-1; first compound 0.03162 µM
  relative viability: 0.572
SK-MES-1; first compound 0.1 µM
  relative viability: 0.524
HCC-15; first compound 0.001 µM
  relative viability: 0.236
HCC-15; first compound 0.003162 µM
  relative viability: 0.312
HCC-15; first compound 0.01 µM
  relative viability: 0.217
HCC-15; first compound 0.03162 µM
  relative viability: 0.165
HCC-15; first compound 0.1 µM
  relative viability: 0.136
NCI-H1437; first compound 0.001 µM
  relative viability: 0.355
NCI-H1437; first compound 0.003162 µM
  relative viability: 0.499
NCI-H1437; first compound 0.01 µM
  relative viability: 0.4
NCI-H1437; first compound 0.03162 µM
  relative viability: 0.304
NCI-H1437; first compound 0.1 µM
  relative viability: 0.317
HCC-827; first compound 0.003162 µM
  relative viability: 0.521
HCC-827; first compound 0.01 µM
  relative viability: 0.529
HCC-827; first compound 0.03162 µM
  relative viability: 0.39
HCC-827; first compound 0.1 µM
  relative viability: 0.379
NCI-H2342; first compound 0.001 µM
  relative viability: 0.501
NCI-H2342; first compound 0.003162 µM
  relative viability: 0.561
NCI-H2342; first compound 0.01 µM
  relative viability: 0.45
NCI-H2342; first compound 0.03162 µM
  relative viability: 0.494
NCI-H2342; first compound 0.1 µM
  relative viability: 0.603
PC-3 [JPC-3]; first compound 0.001 µM
  relative viability: 0.736
PC-3 [JPC-3]; first compound 0.003162 µM
  relative viability: 0.932
PC-3 [JPC-3]; first compound 0.01 µM
  relative viability: 0.91
PC-3 [JPC-3]; first compound 0.03162 µM
  relative viability: 0.621
PC-3 [JPC-3]; first compound 0.1 µM
  relative viability: 0.426
LC-2-ad; first compound 0.001 µM
  relative viability: 0.371
LC-2-ad; first compound 0.003162 µM
  relative viability: 0.337
LC-2-ad; first compound 0.01 µM
  relative viability: 0.382
LC-2-ad; first compound 0.03162 µM
  relative viability: 0.384
LC-2-ad; first compound 0.1 µM
  relative viability: 0.403
NCI-H2087; first compound 0.001 µM
  relative viability: 0.195
NCI-H2087; first compound 0.003162 µM
  relative viability: 0.24
NCI-H2087; first compound 0.01 µM
  relative viability: 0.202
NCI-H2087; first compound 0.03162 µM
  relative viability: 0.19
NCI-H2087; first compound 0.1 µM
  relative viability: 0.197
